# From article doi:10.1101/2025.11.20.689572v1 (biorxiv, 2025)
# Experiments:
# M2 = target: T1, M2 (Homo sapiens, UniProt P08172); assay: competitive radioligand binding, HEK293 membranes
# T1 construct: gene CHRM2; full-length receptor; HEK293 with TRUPATH sensors (function)
# T1 sequence (P08172 1-466): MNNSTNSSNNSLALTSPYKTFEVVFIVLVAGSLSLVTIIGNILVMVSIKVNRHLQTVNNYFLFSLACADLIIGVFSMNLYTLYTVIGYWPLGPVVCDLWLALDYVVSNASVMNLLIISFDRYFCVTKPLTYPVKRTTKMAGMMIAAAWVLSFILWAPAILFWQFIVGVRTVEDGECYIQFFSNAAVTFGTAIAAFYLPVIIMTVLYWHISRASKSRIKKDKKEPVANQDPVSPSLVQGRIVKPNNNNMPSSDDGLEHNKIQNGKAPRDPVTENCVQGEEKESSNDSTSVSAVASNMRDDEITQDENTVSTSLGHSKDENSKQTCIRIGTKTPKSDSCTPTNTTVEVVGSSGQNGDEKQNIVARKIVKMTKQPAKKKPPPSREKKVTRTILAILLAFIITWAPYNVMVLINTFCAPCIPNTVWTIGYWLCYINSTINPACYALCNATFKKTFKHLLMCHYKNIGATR
# SSTR4 = SSTR4 (Homo sapiens, UniProt P31391); assay: cell-based; parameters: PRESTO-Tango beta-arrestin2 recruitment, luciferase luminescence, concentration-response; conditions: HTLA, read-out: N-Desmethyl Xanomeline; Assay=Tango; agonist mode, % of control agonist
# Procedure: Off-target agonism across the human GPCRome was profiled using PRESTO-Tango, following established protocols with minor adaptations [10]–[12]. […] After ~6 h recovery, cells were transfected with 20 ng plasmid DNA per well and incubated overnight. The next day, 10 µL of test compound (prepared in DMEM + 1% dFBS) was added, and plates were incubated overnight. Media and compounds were removed, and 20 µL per well of Bright-Glo luciferase reagent diluted in assay buffer (Hank’s Balanced Salt Solution (HBSS), 20 mM HEPES, pH 7.4) was added. After 20 min at room temperature (dark), luminescence was recorded. Each plate included the dopamine D2 receptor (DRD2) stimulated with 100 nM quinpirole as a positive control. For the GPCRome screen, each receptor was tested in quadruplicate at 0 and 10 µM compound (final). Responses were expressed as fold change relative to the basal (0 µM) condition. Follow-up concentration–response assays were performed under identical conditions except that serial dilutions of compounds (maximum ~30 µM, final) were added to generate full concentration–response curves.
# D1 = target: T2, D1 (Homo sapiens, UniProt P21728); assay: competitive radioligand binding, HEK293 membranes
# T2 construct: gene DRD1; full-length receptor; HEK293 cell membranes
# Description: competitive radioligand binding, HEK293 membranes on D1
# 5-HT1E = target: T3, 5-HT1E (Homo sapiens, UniProt P28566); assay: biochemical; parameters: species or system HEK293; PDSP competitive radioligand binding, membranes of transfected HEK293 cells, filtration, Ki by Cheng-Prusoff
# T3 construct: gene HTR1E
# HRH4 = HRH4 (Homo sapiens, UniProt Q9H3N8); assay: biochemical; parameters: species or system HEK293; PDSP competitive radioligand binding, membranes of transfected HEK293 cells, filtration, Ki by Cheng-Prusoff
# HTR1A = target: T4, HTR1A (Homo sapiens, UniProt P08908); assay: biochemical; parameters: species or system HEK293; PDSP competitive radioligand binding, membranes of transfected HEK293 cells, filtration, Ki by Cheng-Prusoff
# T4 sequence (P08908 1-422): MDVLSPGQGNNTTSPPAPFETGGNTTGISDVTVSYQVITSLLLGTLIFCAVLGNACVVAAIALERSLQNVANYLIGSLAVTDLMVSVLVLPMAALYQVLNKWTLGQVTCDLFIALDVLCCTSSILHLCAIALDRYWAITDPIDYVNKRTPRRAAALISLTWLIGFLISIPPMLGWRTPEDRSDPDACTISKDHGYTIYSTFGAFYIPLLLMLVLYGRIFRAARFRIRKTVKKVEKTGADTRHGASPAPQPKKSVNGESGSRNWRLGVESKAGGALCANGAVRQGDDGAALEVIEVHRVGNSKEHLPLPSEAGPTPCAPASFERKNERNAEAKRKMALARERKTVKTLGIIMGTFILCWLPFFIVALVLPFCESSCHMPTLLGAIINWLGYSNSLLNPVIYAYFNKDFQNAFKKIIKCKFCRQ
# T2 sequence (P21728 whole entry): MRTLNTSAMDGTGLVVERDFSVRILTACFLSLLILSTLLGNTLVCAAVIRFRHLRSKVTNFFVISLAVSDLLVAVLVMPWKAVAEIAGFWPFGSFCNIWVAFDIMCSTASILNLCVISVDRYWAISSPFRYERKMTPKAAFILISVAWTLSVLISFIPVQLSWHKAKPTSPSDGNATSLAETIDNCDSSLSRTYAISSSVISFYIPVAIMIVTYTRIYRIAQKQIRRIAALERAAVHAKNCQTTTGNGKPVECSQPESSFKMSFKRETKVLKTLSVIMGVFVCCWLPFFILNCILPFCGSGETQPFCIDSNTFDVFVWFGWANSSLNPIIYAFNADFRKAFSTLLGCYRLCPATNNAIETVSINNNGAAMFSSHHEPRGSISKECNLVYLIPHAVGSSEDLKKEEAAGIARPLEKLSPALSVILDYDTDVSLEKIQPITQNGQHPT
# Sequence of HRH4 (Q9H3N8 whole entry): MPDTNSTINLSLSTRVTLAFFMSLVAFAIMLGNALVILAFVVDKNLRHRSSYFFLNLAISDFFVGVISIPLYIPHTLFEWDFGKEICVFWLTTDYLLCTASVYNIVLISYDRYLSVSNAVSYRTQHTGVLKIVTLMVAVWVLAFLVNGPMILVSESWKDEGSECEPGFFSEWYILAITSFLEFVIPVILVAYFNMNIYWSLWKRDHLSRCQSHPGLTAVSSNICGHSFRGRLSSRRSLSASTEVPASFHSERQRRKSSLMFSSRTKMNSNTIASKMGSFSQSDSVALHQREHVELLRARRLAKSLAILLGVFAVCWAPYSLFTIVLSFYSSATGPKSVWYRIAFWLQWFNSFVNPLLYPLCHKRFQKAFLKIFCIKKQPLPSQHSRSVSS
# Sequence of SSTR4 (P31391 whole entry): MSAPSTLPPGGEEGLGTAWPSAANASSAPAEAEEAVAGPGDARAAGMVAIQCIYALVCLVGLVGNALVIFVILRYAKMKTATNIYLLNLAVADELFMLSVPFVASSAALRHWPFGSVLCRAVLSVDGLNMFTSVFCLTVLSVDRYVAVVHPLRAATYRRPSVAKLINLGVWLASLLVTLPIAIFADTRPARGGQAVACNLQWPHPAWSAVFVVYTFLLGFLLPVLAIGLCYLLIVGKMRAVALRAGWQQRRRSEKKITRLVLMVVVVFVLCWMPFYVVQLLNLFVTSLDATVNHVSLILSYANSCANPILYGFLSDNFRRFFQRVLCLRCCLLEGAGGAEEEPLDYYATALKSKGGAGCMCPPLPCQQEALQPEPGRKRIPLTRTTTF
# T3 sequence (P28566 whole entry): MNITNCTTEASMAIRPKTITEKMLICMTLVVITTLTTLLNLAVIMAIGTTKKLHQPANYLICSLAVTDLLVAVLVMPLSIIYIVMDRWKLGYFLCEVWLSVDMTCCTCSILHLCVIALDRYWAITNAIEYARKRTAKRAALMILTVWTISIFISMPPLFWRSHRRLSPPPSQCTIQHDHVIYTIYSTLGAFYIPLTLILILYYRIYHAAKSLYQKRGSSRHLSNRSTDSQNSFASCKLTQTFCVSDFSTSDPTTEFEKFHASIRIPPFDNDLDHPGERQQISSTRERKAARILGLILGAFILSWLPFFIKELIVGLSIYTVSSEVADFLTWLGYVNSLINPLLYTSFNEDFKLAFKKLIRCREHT
smiles,measurement,setting,value
CCCCCCOc1nsnc1C1=CCCNC1 [N-desmethylxanomeline],Ki,M2,1.45 µM
same,Emax,SSTR4,2.88%
CCCCCCOc1nsnc1C1=CCCN(C)C1 [Xanomeline],Ki,D1,1.58 µM
same,Ki,5-HT1E,> 10 µM
same,Ki,HRH4,> 10 µM
same,Ki,HTR1A,5.89 µM
